From patent publication US8318954B2, “Cleavable carnitine compound” (Nou Life Sciences, Inc., priority 2006, dated 2012)

How the values were obtained:
Format in all cases: in vivo
C. elegans [1] = test: Thermal avoidance (TAV) single intensity testing (6% laser intensity)
Experimental: (§1) One 24 well microtiter plate was set up and incubated overnight on the shaker at 20° C. Each well on the plate was set up with 600 L3/L4-stage N2 animals in NGM with a 1:20 dilution of concentrated HB101 E. coli (food source) in a volume of 300 μl. Before the animal/HB101 solution was added, test compounds were pipetted into wells. 3 μl each for the DMSO controls and LA dilutions were added to each well (1:100 dilutions). Controls and LA dilutions were done in triplicate (total of 9 wells).
6% Response tests—setup: All 9 wells from the 24 well plate were used for 6% testing and the entire well contents (600 animals) were used for each test. Prior to being placed on the agar plate for TAV testing each sample was processed as described for ‘Dose Responses’.
Dose Responses—general notes on analysis: Analysis similar as described in ‘Dose Responses’. In addition, ‘Response ratios’ as well as ‘A Speed responses’ both give measures of how much individual animals changed speed in response to the stimulus (additional information available upon request).
as §1, with “wells. 6” for “wells. 3”, “the water” for “the DMSO”, “and compound” for “and LA”, “well (1:50” for “well (1:100”, “of 15” for “of 9”
6% Response tests—setup: All 15 wells from the 24 well plate were used for 6% testing) and the entire well contents (600 animals) were used for each test. Prior to being placed on the agar plate for TAV testing each sample was processed as described for ‘Dose Responses’.
as §1, with “LC” for “LA”

C. elegans [2] = test: Thermal avoidance (TAV) 3 step dose response testing; settings: for effects indicating increased sensory sensitivity: 0%, 6%, 12% laser intensity
Description: The present invention includes a series of compounds that may be useful for increasing sensory neuron function in certain human neuropathological conditions. C. elegans contains a number of sensory neurons which are responsible for detecting a variety of external stimuli. One such stimulus (heat) can be detected and quantified in C. elegans by the use of thermal avoidance (TAV) technology available through NemaRx. The goal of this experiment was to provide an initial characterization of the compounds via TAV. Specifically, it was asked whether any of these compounds can lead to an increase in the thermal stimulus-induced behavioral response measured by TAV. N2 strain C. elegans animals were used for this project, which have ‘normal’, i.e. wildtype, sensory neuron function. Four compounds were received by NemaRx for TAV testing. These compounds were:
(§2) One 24 well microtiter plate was set up and incubated overnight on the shaker at 20 C. Each well on the plate was set up with 600 L3/L4-stage N2 animals in NGM with a 1:20 dilution of concentrated HB101 E. coli (food source) in a volume of 300 μl. Before the animal/HB101 solution was added, test compounds were pipetted into wells. For water controls and compound stocks/dilutions in water (DHLA, NAC) 6 μl was added to each well (1:50 dilutions). For DMSO controls and compound stocks/dilutions in DMSO (LA) 3 μl was added to each well (1:100 dilutions). No OD620 measurements were taken but the animals were visually scored after 19 h incubation.
Dose Responses—setup: All of the wells from the 24 well plate were used for dose response testing and the entire well contents (600 animals) were used for each test. Prior to being placed on the agar plate for TAV testing each sample was processed as follows: • sample were transferred to glass tube containing 7 ml PBS • animals were allowed to settle for 5 minutes before most of the supernatant was removed (approx. 0.5 ml remaining in tube) • 7 ml PBS was then added, mixed and animals were allowed to settle for 5 minutes most of the supernatant was then removed • animals were removed and transferred to TAV testing plate (NRx Application pattern A) • plate was allowed to dry for 10 minutes (plate cover removed) and TAV testing was initiated. Per plate settings for the dose response experiments were as follows:
Dose Responses—general notes on analysis: A response of the animals to a thermal stimulus (laser) which is applied to the head region can be detected both by a change in the direction of movement, as well as by a change in speed occurring within the test interval where the stimulus is applied. • direction of movement. […] Animals that show a strong change in the direction of movement, i.e. reversals, are classified as LR5 responders. […] LR5 responders show a thermal intensity-dependent increase in the speed of movement (starting off with less than <prelaser speed at low intensities up to > pre-laser speed at high intensities)
The dose response experiments for the current project were carried out with 0% (background control), 6% and 12% settings of laser intensity. In practice, 6% is on the edge of laser intensity required to detect an increase in the number of LR5 responders. As such, 6% should be a useful intensity-setting to detect compound-induced increased sensitivity in the animals. The 12% setting was chosen because this intensity typically gives a robust increase in the number of LR5 responders.
Total Responder speeds, ‘LR1 Responder speeds’ and ‘LR5 Responder speeds’ are shown as normalized speeds to allow better comparison between samples. For normalization purposes the average pre-laser speed is set at 1.0 and responder speeds are calculated relative to this value.
One 24 well microtiter plate was set up and incubated overnight on the shaker at 20° C. Each well on the plate was set up with 600 L3/L4-stage N2 animals in NGM with a 1:20 dilution of concentrated HB101 E. coli (food source) in a volume of 300 μl. […]

C. elegans [3] = test: Visual scoring of C. elegans after overnight incubation with compound in 24 well plate; settings: for visual scoring of well clearance: L3/L4-stage N2 animals
Experimental: as §2
as §2, with “at 20°” for “at 20”, “For” for “For water controls and compound stocks/dilutions in water (DHLA, NAC) 6 μl was added to each well (1:50 dilutions). For”, “DMSO (LC)” for “DMSO (LA)”, “h incubation).” for “h incubation.”
as §2, with “at 20°” for “at 20”, “For” for “For water controls and compound stocks/dilutions in water (DHLA, NAC) 6 μl was added to each well (1:50 dilutions). For”, “DMSO (LC)” for “DMSO (LA)”, “after 22” for “after 19”, “h incubation).” for “h incubation.”

[4] = even at highest concentration 2 mM (LC)

visual scoring of well clearance (C. elegans [3]; LA1, 10 mM final concentration in well, 19 h incubation)	visual scoring of well clearance (C. elegans [3]; LA2, 5 mM final concentration in well, 19 h incubation)	Compound	effects indicating increased sensory sensitivity (C. elegans [1]; 2 mM or 1 mM)	effects indicating increased sensory sensitivity (C. elegans [2]; even at highest non-toxic concentration of 2 mM)	speed of LR1 responders (C. elegans [2]; LA3 dilution)	percentage of LR5 responders (C. elegans [2]; dilutions LA4, LA5 and LA6, similar to the last DMSO control)	toxicity evident from 'Frames viewed' and 'Average Speeds' (C. elegans [2]; two highest LA concentrations (LA1, LA2))	effects indicating increased sensory sensitivity (C. elegans [1]; [4])	effects indicating increased sensory sensitivity (C. elegans [2]; [4])	visual scoring (toxicity) (C. elegans [3]; LC, 22 h incubation)	visual scoring (toxicity) (C. elegans [3]; all LC dilutions LC1-LC6 (up to 2 mM), 19 h incubation)
most bacteria remaining	some bacteria remaining	O=C(O)CCCCC1CCSS1 (centres unmarked) [LA, Lipoic acid]	No effects detected	No obvious effects detected	relatively low	relatively high	toxicity is observed	–	–	–	–
–	–	Acetyl-L-Carnitine-Lipoic acid conjugate [LC Conjugate]	–	–	–	–	–	No obvious effects detected	No obvious effects detected	no toxicity observed	no toxicity observed
